According to ChEMBL document CHEMBL1126116, “Synthesis and antibronchospastic activity of 8-alkoxy- and 8-(alkylamino)imidazo[1,2-a]pyrazines” (J Med Chem, 1992):

Tests used:
Rattus norvegicus [1] = organism: Rattus norvegicus; assay: Inhibition of spontaneous contraction of isolated rat uterus; assay type: functional; details: read-out: ED50 (the source's name)
Heart phosphodiesterase = Heart phosphodiesterase (Bos taurus, UniProt Q01061+P14100+E1BN64); assay: Inhibition of bovine heart phosphodiesterase; assay type: protein assay
[2] = Compound was tested for it's acute toxicity in mice when given orally.; assay type: organism-based; details: mouse, in vivo, po
Rattus norvegicus [3] = organism: Rattus norvegicus; assay: (§1) Inhibition of carbachol induced tracheal contraction; assay type: functional; details: Trachea, read-out: ED50 (the source's name)
Mus musculus [4] = assay: Locomotor activity (no. light beam crossings in 50 min) in mice by intravenous dose at 55 umol/kg; assay type: functional
Mus musculus [5] = assay: Locomotor activity (no. light beam crossings in 50 min) in mice by intravenous dose at 166 umol/kg; assay type: functional
[6] = Compound was tested for its acute toxicity in mice when given orally.; assay type: organism-based; details: mouse, in vivo, po
Cavia porcellus = organism: Cavia porcellus; assay: as §1; assay type: functional; details: Trachea, read-out: ED50 (the source's name)

Compound	EC50 (Rattus norvegicus [1]) [µM]	IC50 (Heart phosphodiesterase) [µM]	LD50 [2] [µmol/kg]	EC50 (Rattus norvegicus [3]) [µM]	Activity (Mus musculus [4]) [%]	Activity (Mus musculus [5]) [%]	LD50 [6] [µmol/kg]	EC50 (Cavia porcellus) [µM]
Nc1nc(Br)cn2ccnc12	300	267	1300	93	-53	-83		
CNc1nc(Br)cn2cc(C#N)nc12	2	70	500	2	-64			
CNc1nc(Br)cn2ccnc12	160	27	2200	24	-75	-83		
CCNc1nc(Br)cn2ccnc12	130	81	2900	65	-13	-73		
CNc1nccn2c(Br)cnc12	100	337			-25	-57	4200	97
Cn1c(=O)c2nc[nH]c2n(C)c1=O.O [THEOPHYLLINE]	900	92	1900	920	130	170		
